This test deals with T1, TLR7 (Homo sapiens, UniProt Q9NYK1).
T1 construct: expressed in transfected cells; host or cells: HEK cells carrying TLR7 and an NF-kB reporter read with Steady-Glo
T1 sequence (Q9NYK1 27-1049): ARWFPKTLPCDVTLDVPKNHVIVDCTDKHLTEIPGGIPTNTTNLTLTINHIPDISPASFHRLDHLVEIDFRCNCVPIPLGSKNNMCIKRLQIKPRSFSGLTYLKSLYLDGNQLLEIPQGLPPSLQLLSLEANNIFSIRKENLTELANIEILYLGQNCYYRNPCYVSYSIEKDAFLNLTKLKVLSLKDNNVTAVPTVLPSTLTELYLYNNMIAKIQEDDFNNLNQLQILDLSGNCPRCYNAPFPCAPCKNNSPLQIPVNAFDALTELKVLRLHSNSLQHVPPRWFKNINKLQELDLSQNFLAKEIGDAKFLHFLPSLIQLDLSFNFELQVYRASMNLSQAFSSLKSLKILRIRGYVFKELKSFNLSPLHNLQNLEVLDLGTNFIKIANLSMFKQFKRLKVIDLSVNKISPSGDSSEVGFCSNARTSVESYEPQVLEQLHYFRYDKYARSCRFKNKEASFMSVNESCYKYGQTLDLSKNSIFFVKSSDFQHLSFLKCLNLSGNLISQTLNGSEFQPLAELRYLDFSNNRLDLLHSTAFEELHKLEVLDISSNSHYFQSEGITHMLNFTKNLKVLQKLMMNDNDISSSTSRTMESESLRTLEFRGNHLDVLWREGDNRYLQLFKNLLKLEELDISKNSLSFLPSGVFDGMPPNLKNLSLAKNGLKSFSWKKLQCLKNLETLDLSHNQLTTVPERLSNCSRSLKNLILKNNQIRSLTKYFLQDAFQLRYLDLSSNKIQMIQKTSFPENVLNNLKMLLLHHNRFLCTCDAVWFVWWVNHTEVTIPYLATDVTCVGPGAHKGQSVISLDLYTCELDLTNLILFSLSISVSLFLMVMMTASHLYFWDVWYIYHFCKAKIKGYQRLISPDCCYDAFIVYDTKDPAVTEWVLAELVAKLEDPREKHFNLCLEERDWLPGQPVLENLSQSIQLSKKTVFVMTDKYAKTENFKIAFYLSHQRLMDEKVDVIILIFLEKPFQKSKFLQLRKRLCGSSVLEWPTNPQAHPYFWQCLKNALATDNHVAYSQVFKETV
Description: HEK Cell Assay (TLR7/NFKb HEK reporter cells, Steady-Glo). The test is classed as cell-based. Conditions: compound 30 min, then R*48 agonist 5 hours, Steady-Glo readout, read-out: Potency. The method, boiled down: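 TLR7/NF-κB HEK reporter cells cultured 24 h, then pre-incubated 30 min with compound before adding R*48 agonist. Luciferase read by Steady-Glo luminescence after 5 h.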

pIC50: −log10 of the molar value. Bounds are passed on as bounds.

For `C[C@@H]1C[C@H](NC(=O)[C@@H](O)C(C)(C)C)C[C@H](c2ccc(C(F)(F)F)c3nccnc23)C1` [Compound 155, (S)-2-hydroxy-3,3-dimethyl-N-((1S,3S,5R)-3-methyl-5-(8-(trifluoromethyl)quinoxalin-5-yl)cyclohexyl)butanamide], the pIC50 was 4.70 to 6.00.

For the molecule `COCCN[C@@H]1C[C@H](C)C[C@H](c2ccc(F)c3ncccc23)C1` [Compound 160, (cis-1,3,5)-3-(8-fluoroquinolin-5-yl)-N-(2-methoxyethyl)-5-methylcyclohexan-1-amine], the pIC50 was under 4.70.

The values above are taken from US11512069B2, “TLR7/8 antagonists and uses thereof” (Merck Patent GmbH, priority 2016, dated 2022).
